Test results as given in patent publication US8084431B2, “Method for inhibiting activation of macrophages, inhibiting formation of osteoclasts, inhibiting function of osteoclasts, and/or activating osteoblasts” (China Medical University, priority 2008, dated 2011).
Marks after values point to notes of the source that are not given here.

Assays:
NF-κB = assay: EMSA of NF-κB entering nuclei in RANKL-activated macrophages RAW 264.7; assay type: cell-based; details: kinsenoside 10, 25, 50 μM, RANKL 50 ng/ml, 60 minutes, FIG. 7B and 7C
Excerpt: EMSA (Electrophoresis Mobility Shift Assay) was used to observe the mechanism of the inhibition effect of kinsenoside on the formation of osteoclasts. It is known that RANKL may activate macrophages RAW 264.7 to make NF-κB enter nuclei to stimulate macrophages RAW 264.7 to differentiate into osteoclasts (see Wada T, Nakashima T, Hiroshi N, Penninger J M. 2006. RANKL-RANK signaling in osteoclastogenesis and bone disease. Trends Mol. Med. 12, 17-25).
The DNA sequences used in the EMSA assay are as follows:
The macrophages RAW 264.7 were incubated for 60 minutes, and then proteins in the nuclei were extracted to be analyzed with EMSA. Herein, the DNA sequences used in the EMSA assay are the same as the above experiment.

macrophages RAW 264.7 [1] = assay: Formation of osteoclasts from macrophages RAW 264.7 (RANKL, TRAP stain); assay type: cell-based; details: Mus musculus, RAW264.7, 120 h, RANKL 50 ng/ml, 5 days, read-out: inhibition percentage
Protocol: If macrophages RAW 264.7 are incubated in culture plates containing 50 ng/ml of differentiation inducer, RANKL, they usually differentiate into osteoclasts after 5 days. In Experiment H, various concentrations (0, 10, and 50 μM) of kinsenoside or 10 nM of estradiol were added into culture plates containing macrophages RAW 264.7, respectively, and the macrophages RAW 264.7 were incubated for 5 days. […] The number of osteoclasts was counted, and the inhibition percentage of the formation of osteoclasts was calculated with the following formula, and the result is shown in Table 11. Inhibition percentage=(the number of osteoclasts in the control group−the number of osteoclasts in the experimental group)/the number of osteoclasts in the control group×100%

[2] = test system: ICR mice administrated with lipopolysaccharides; assay: Septic shock death of ICR mice induced by high dosage of lipopolysaccharides; assay type: in vivo; details: kinsenoside 100 or 300 mg/kg intraperitoneal, LPS 80 mg/kg, FIG. 4
Protocol: ICR mice were intraperitoneally administrated with various dosages (100 mg/kg or 300 mg/kg) of kinsenoside. 30 minutes later, the ICR mice were intraperitoneally administrated with 80 mg/kg of lipopolysaccharides, and the death rate of the ICR mice within 72 hours was observed.

[3] = test system: BALB/c mice with collagen-induced rheumatoid arthritis; assay: Collagen-induced rheumatoid arthritis of BALB/c mice; assay type: in vivo; details: for CD4/278 (ratio of Th2 cells) / CD19/45 (ratio of B cells) / the number of lymphocytes: inguinal lymph nodes; for IgE / IgG1 / TNF-α: serum
Protocol: BALB/c mice were purchased from the National Laboratory Animal Center, Taiwan. 200 μg of type-IT collagen (Sigma) was subcutaneously injected into the tails of the BALB/c mice to induce the rheumatoid arthritis, wherein type-II collagen was emulsified with a Freund's complete adjuvant (Sigma) previously. At the […], 200 μg of type-II collagen was subcutaneously injected into the tails of the BALB/c mice again, and type-II collagen was emulsified with a Freund's incomplete adjuvant (Sigma) previously. From the day of the second injection, the BALB/c mice were administrated orally with kinsenoside (100 or 300 mg/kg) daily for 21 days. After 21 days, the BALB/c mice were sacrificed, and the blood, inguinal lymph nodes, and soles comprising joints of the BALB/c mice were collected for assay.
The concentrations of TNF-α and antibodies IgE and IgG1 in the serum were determined with ELISA method. Antibodies IgE and IgG1 reagents were purchased form Bethyl, Montgomery, Tex., USA.
Lymph nodes were taken from the both sides of the groins of the BALB/c mice, and were sieved to produce a single suspended cell line. The number of lymphocytes was determined with a flow cytometer. In addition, B cells and Th2 cells were stained with antibodies CD19/45 and CD4/278 (eBioscience) to obtain the ratio of B cells and Th2 cells.
The mRNAs were extracted from the right soles and joints of the mice, and the expression of the mRNAs of TNF-α was analyzed with RT-PCR (Reverse Transcription-Polymerase Chain Reaction).

[4] = test system: ICR mice administrated with lipopolysaccharides; assay: LPS-induced inflammatory cytokines in the blood of ICR mice (ELISA); assay type: in vivo; details: LPS 40 mg/kg, 1 hour
Protocol: ICR mice were intraperitoneally administrated with various dosages (100 mg/kg or 300 mg/kg) of kinsenoside. 30 minutes later, the ICR mice were intraperitoneally administrated with 40 mg/kg of lipopolysaccharides. 1 hour later, the blood of the ICR mice was collected from the retro-orbital sinus, and the concentrations of TNF-α and IL-1β were determined with an ELISA (enzyme linked immunosorbent assay) reagent (eBioscience, Boston, Mass.).

macrophages RAW 264.7 [5] = assay: NO release of LPS-induced macrophages RAW 264.7 (Griess reagent); assay type: cell-based; details: 24 hours
Protocol: 24 hours later, the supernatant was collected, and the content of nitric oxide was determined with a Griess reagent (Sigma). After macrophages RAW 264.7 were scratched off the culture plates, proteins were extracted, and then the expression of nitric oxide synthase (iNOs), p65, and p50 (nuclear factor kappa B or NF-κB, transcription factor) was analyzed with the western blot method.

ovariectomized ICR mice = assay: Osteoporosis of ovariectomized ICR mice; assay type: in vivo; details: for bone volume/tissue volume / the number of trabecula: femur, micro computed tomography; for bone volume/tissue volume / the number of trabecula / CTx / osteocalcin: 3 weeks; for CTx / osteocalcin: serum
Protocol: First, the ovaries of ICR mice were removed. After 3 days, the ICR mice were administrated with various dosages (0, 100, and 300 mg/kg) of kinsenoside, respectively. Herein, the unit “mg/kg” means that the dosage (mg) required for each kilogram of the body weight of an animal. After 3 weeks, the ICR mice were sacrificed. ELISA was used to determine the content of osteocalcin and C-terminal cross-lined telopeptides of type I collagen (CTx) in serum. The reagents for determining osteocalcin and CTx were purchased from IDS Nordic A/S, Herlev, Danmarkids. The femurs of the sacrificed ICR mice were taken, and were photographed by a micro computed tomography (SkyScan 1076, Kontizh, Belgium). The computerized axial tomography is shown in FIG. 10, and the ratio of bone volume to tissue volume and the number of trabecula were analyzed with analysis software. Then, the femurs were decalcified and were frozen sectioned. Osteoclasts in the femurs were stained with a TRAP stain reagent.

[6] = kinsenoside 100 mg/kg oral daily for 21 days
[7] = kinsenoside 300 mg/kg oral daily for 21 days
[8] = kinsenoside 100 mg/kg intraperitoneal
[9] = kinsenoside 300 mg/kg intraperitoneal

In the case of `O=C1C[C@@H](OC2OC(CO)C(O)C(O)C2O)CO1` (stereo partly drawn) [kinsenoside, 3-(R)-3-β-D-glucopyranosyloxy-butanolide], the “amount of NF-κB that enters into the nuclei” value (NF-κB) is reported as “reduces the amount of NF-κB that enters into the nuclei”, the inhibition at 10 µM (macrophages RAW 264.7 [1]; 10 μM) is reported as 19 ± 9% and the inhibition at 25 µM (macrophages RAW 264.7 [1]; 25 μM) is reported as 59 ± 8%. The inhibition at 50 µM (macrophages RAW 264.7 [1]; 50 μM) was 71 ± 3%, the “death rate of the ICR mice within 72 hours” value [2] was “inhibits the death rate” and the “CD4/278 (ratio of Th2 cells)” value [3, 6] was 8.0 ± 0.6 %. The “CD19/45 (ratio of B cells)” value [3, 6] was 19.3 ± 2.1 %, the “the number of lymphocytes” value [3, 6] was 3.3 ± 0.6* 10^5/ml and the “CD4/278 (ratio of Th2 cells)” value [3, 7] was 7.6 ± 0.6 %. The “CD19/45 (ratio of B cells)” value [3, 7] was 18.6 ± 3.6 %, the “the number of lymphocytes” value [3, 7] was 2.8 ± 1.0*** 10^5/ml and the “expression of mRNAs of TNF-α” value ([3]; right soles and joints, RT-PCR, kinsenoside 100 or 300 mg/kg oral, FIG. 5A and 5B) was “alleviates the expression of mRNAs of TNF-α”. For the same compound, the IgE [3, 6] was 0.15 ± 0.03 absorbance, the IgG1 [3, 6] was 2.44 ± 0.05 absorbance and the TNF-α [3, 6] was 825.9 ± 155.4* 10^−12 g/ml. For the same compound, the IgE [3, 7] was 0.13 ± 0.04 absorbance, the IgG1 [3, 7] was 2.41 ± 0.10 absorbance and the TNF-α [3, 7] was 790.0 ± 194.1* 10^−12 g/ml. The IL-1β [4, 8] was 371.1 ± 127.8 ng/mL, the TNF-α [4, 8] was 680.5 ± 160.2 ng/mL and the IL-1β [4, 9] was 272.6 ± 102.6 ng/mL. The TNF-α [4, 9] was 513.4 ± 155.0 ng/mL, the “the concentration of NO” value (macrophages RAW 264.7 [5]; kinsenoside 10 μM) was 15.5 ± 3.7 µM and the “the concentration of NO” value (macrophages RAW 264.7 [5]; kinsenoside 50 μM) was 12.0 ± 3.1 µM. The “the concentration of NO” value (macrophages RAW 264.7 [5]; kinsenoside 100 μM) was 8.4 ± 1.7 µM, the “bone tissues of the femurs in micro computed tomography” value (ovariectomized ICR mice; compared to ICR mice that are not ovariectomized, FIG. 10) was “return to a normal state” and the bone volume/tissue volume (ovariectomized ICR mice; kinsenoside 100 mg/kg) was 19.9 ± 1.5 %. For the same compound, the “the number of trabecula” value (ovariectomized ICR mice; kinsenoside 100 mg/kg) was 12.2 ± 1.5 cm⁻¹, the bone volume/tissue volume (ovariectomized ICR mice; kinsenoside 300 mg/kg) was 21.2 ± 2.2 % and the “the number of trabecula” value (ovariectomized ICR mice; kinsenoside 300 mg/kg) was 12.8 ± 1.5 cm⁻¹. It also gave a CTx (ovariectomized ICR mice; kinsenoside 100 mg/kg) of 29.7 ± 6.9 ng/mL, an osteocalcin (ovariectomized ICR mice; kinsenoside 100 mg/kg) of 191.2 ± 33.5 ng/mL and a CTx (ovariectomized ICR mice; kinsenoside 300 mg/kg) of 27.5 ± 3.1 ng/mL. The osteocalcin (ovariectomized ICR mice; kinsenoside 300 mg/kg) was 351.8 ± 80.5 ng/mL.
